The text below walks through data of PMC5165251, “Rivaroxaban-Induced Hemorrhage Associated with ABCB1 Genetic Defect” (Frontiers in Pharmacology, 2016).

Entries after “also recorded” stand apart in the source; their conditions may differ. Where two headings read alike, the source gives them in different places.

Data set [1] relates to CYP3A4/5. As to conditions: ref Bosilkovska et al., 2014, cited from earlier work.
Data set [2] relates to CYP3A4/5. Briefly: CYP3A4/5 phenotyping with midazolam as probe. To be noted: patient, 8 days after hospital admission, concomitant atorvastatin 40 mg q.d. As to the method:
Midazolam was used as a probe to measure the joint activity of CYP3A4/5 as previously described ([Bosilkovska et al., 2014]). Phenotyping was performed 8 days after hospital admission with concomitant treatment of insulin, enoxaparin 60 mg b.i.d., atorvastatin 40 mg q.d.

Data set [3] deals with CYP3A4/5. As to conditions: in vitro; ref Lee et al., 2015; cited from earlier work.
A further data set relates to P-gp. To be noted: in vitro; ref Lee et al., 2015; cited from earlier work.
On the set-up of data set [4]: method as in Lee et al., 2015. As to conditions: in vivo; ref Lee et al., 2015; cited from earlier work.
Data set [5] in a line: Rivaroxaban plasma concentrations by LC-MS/MS in the patient. Format: in vivo, human. Here is the method:
Rivaroxaban determination was performed using a fully validated LC-MS/MS method according to guidelines of the US Food and Drug Administration and the International Conference on Harmonization. The method was accurate and precise across the dynamic range of 0.5–1000 ng/ml. The LOQ was 0.5 ng/ml. The mean precision and accuracy, calculated from the QCs, were 10.2 and 112%, respectively.
A plasma sample of 40 μl was processed by protein precipitation extraction using acetonitrile (200 μL). Separation was performed on a C18 column (50 mm × 2.1 mm ID; 2.6 μm particle size) and under gradient conditions using formic acid 10 mM in water and formic acid 10 mM in acetonitrile. Detection was by tandem-MS in positive mode using a Qtrap API 6500 from AB sciex (Ontario, Canada) using rivaroxaban-d4 as internal standard (20 ng/ml).

On the set-up of data set [6]: method as in Grillo et al., 2012. To be noted: PBPK simulation, concurrent renal impairment plus erythromycin, elderly; ref Grillo et al., 2012; cited from earlier work.
The nature of data set [7]: Case report: laboratory testing at hospital admission under rivaroxaban. As to conditions: 3 months on rivaroxaban 20 mg q.d., normal range 140–180 g/l. Format: in vivo, human.
Details of data set [8]: method as in Mueck et al., 2014. As to conditions: ref Mueck et al., 2014, cited from earlier work.
Details of data set [9]: method as in Moore et al., 2014. As to conditions: moderate renal impairment plus erythromycin vs normal renal function, rivaroxaban 10 mg alone; ref Moore et al., 2014; cited from earlier work.
The next data set has as its system Mdr1a/Mdr1b/Bcrp. Further details: method as in Gong et al., 2013. As to conditions: 4 h after administration; ref Gong et al., 2013; cited from earlier work.
The target in another data set is T1, Factor Xa (Homo sapiens, UniProt P00742).
T1 construct: purchased Hyphen Biomed, Neuville-Sur-Oise, France
In words: Anti-Xa activity, chromogenic assay (DiXal kit) in patient plasma. It counts as in vivo. To be noted: patient on 20 mg q.d. As to the method:
Anti-Xa activity was measured with a chromogenic assay using the DiXal® kit (Hyphen Biomed, Neuville-Sur-Oise, France) and a BCS XP instrument (Siemens, Marburg, Germany). This method has a limit of detection of 10 ng/ml. No information is given by the manufacturer regarding the limit of quantification (LOQ). However, previous studies have shown a LOQ of 20–30 ng/ml ([Douxfils et al., 2013]). The accuracy and precision calculated from the quality controls (QCs) were 107.0 and 8.8%, respectively, ([Asmis et al., 2012]). An excellent correlation between this method and liquid chromatography-tandem mass spectrometry (LC-MS/MS) has been shown (Spearman correlation coefficient of 0.96) ([Douxfils et al., 2013]).

On the set-up of data set [10]: method as in Mueck et al., 2013. As to conditions: healthy volunteers, ref Mueck et al., 2013, cited from earlier work.
Where [11] appears, read: with ketoconazole 200 mg q.d. vs rivaroxaban alone.
[12] abbreviates: with ketoconazole 400 mg q.d. vs rivaroxaban alone.

T1 sequence (P00742 235-488 limits assumed): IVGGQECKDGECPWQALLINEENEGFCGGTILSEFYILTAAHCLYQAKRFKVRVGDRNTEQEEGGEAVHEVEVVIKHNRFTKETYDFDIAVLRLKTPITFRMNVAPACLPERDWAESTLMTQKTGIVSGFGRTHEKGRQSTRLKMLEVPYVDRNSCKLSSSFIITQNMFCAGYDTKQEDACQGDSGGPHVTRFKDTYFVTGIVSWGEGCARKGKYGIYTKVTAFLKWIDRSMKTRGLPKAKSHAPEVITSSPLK
T1 sequence (P00742 41-179 partner limits assumed): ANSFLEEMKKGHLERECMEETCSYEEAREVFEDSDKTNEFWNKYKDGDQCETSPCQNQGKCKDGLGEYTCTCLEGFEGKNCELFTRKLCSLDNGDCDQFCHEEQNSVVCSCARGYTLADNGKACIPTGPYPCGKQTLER

Regarding `Cc1ncc2n1-c1ccc(Cl)cc1C(c1ccccc1F)=NC2` [midazolam], the OH-midazolam/midazolam metabolic ratio in the data set on CYP3A4/5 [1] (healthy volunteers in the presence of a CYP inhibitor (voriconazole)) was 0.22; with CYP3A4/5 [1] (healthy volunteers without enzyme inhibitor/inducer) it was 0.50; in the data set on CYP3A4/5 [2] it was 0.31.
Consider `CC(C)c1c(C(=O)Nc2ccccc2)c(-c2ccccc2)c(-c2ccc(F)cc2)n1CC[C@@H](O)C[C@@H](O)CC(=O)O` [atorvastatin], for which, in the data set on CYP3A4/5 [3], the “Inhibition of CYP3A4/5 activity” value is on record as “inhibited”. The “Inhibition of P-gp activity” value in the data set with P-gp was “not P-gp activity”. Also, the “Impact on nifedipine pharmacokinetics” value in [4] is on record as “no impact”.
For `O=C(NC[C@H]1CN(c2ccc(N3CCOCC3=O)cc2)C(=O)O1)c1ccc(Cl)s1` [rivaroxaban], the Rivaroxaban plasma concentrations is 88.3 ng/mL in data set [5] (48 h after the last rivaroxaban dose, patient on 20 mg q.d., LC-MS/MS) and 35.6 ng/mL in [5] (96 h (4 days) after the last rivaroxaban dose, patient on 20 mg q.d., LC-MS/MS). For the same compound, the half-life (as a rule, the time in which the quantity being followed falls by half) in [5] (human, plasma, oral, 20 mg q.d. Patient, homozygous ABCB1 variant carrier, moderate acute renal failure, read-out: Estimated half-life) was 24 to 30 h; in data set [8] (old patients) it was 11 to 13 h. For the same compound, in data set [5] (human, plasma, oral, 20 mg q.d., 48 h after the last rivaroxaban dose, patient on 20 mg q.d., LC-MS/MS), the concentration at 48 h worked out at 88 ng/mL. Further, the concentration at 72 h in data set [5] (human, plasma, oral, 20 mg q.d., 72 h after the last rivaroxaban dose, patient on 20 mg q.d., LC-MS/MS) stood at 70.5 ng/mL. In data set [5] (human, plasma, oral, 20 mg q.d., 96 h (4 days) after the last rivaroxaban dose, patient on 20 mg q.d., LC-MS/MS), the concentration at 96 h was 36 ng/mL. In addition, the “Estimated half-life relative to usually reported” value in [5] (patient vs usually reported half-life) is recorded as 2–3 times. Besides, the “Increase in rivaroxaban exposure” value in [6] was 2.5–3 fold. The Hemoglobin level in data set [7] is 70 g/L. In addition, in data set [8], the Oral bioavailability is 80–100%. The “Part of the dose eliminated as unchanged drug in the urine” value in data set [8] is “more than one third; also recorded: About one third”. Further, the “Increase in rivaroxaban AUC” value in [9] is recorded as “approximately 99%”; in data set [10] (setting [11]) it was 82%; in data set [10] (setting [12]) it was 158%. For the same compound, the “Increase in rivaroxaban Cmax” value is recorded as about 64% in data set [9], 53% in data set [10] (setting [11]) and 72% in [10] (setting [12]). Further, the “Increase in plasma concentration, triple knockout vs wild type mice” value in the data set with Mdr1a/Mdr1b/Bcrp was 1.7 fold. Besides, the Anti-Xa activity at Factor Xa (24 h after the last rivaroxaban dose) worked out at 231 ng/mL; on Factor Xa (48 h after the last rivaroxaban dose), 110 ng/mL; at Factor Xa (60 h after the last rivaroxaban dose), 81 ng/mL; at Factor Xa (72 h after the last rivaroxaban dose) it was 66 ng/mL; on Factor Xa (84 h after the last rivaroxaban dose), 66 ng/mL; on Factor Xa (96 h (4 days) after the last rivaroxaban dose), 34 ng/mL.
